In patent US6699901B1, “Dicarboxylato diammine platinum derivatives and compositions comprising them as anti-tumor agents” (priority 2000, dated 2004):
Entries after “also recorded” stand apart in the source; their conditions may differ. Read-outs that look alike come from different tables or passages of the source.

Experiments:
nude mice = experiment: Acute toxicity dose limiting experiments (LD50)
Method: The LD50 of the pharmaceutical composition of the invention is tested as follows, for example: […]

[1] = tested on: human hepatic cancer cells BEL-7402; experiment: IC50 on human hepatic cancer cells BEL-7402; type: cell-based
[2] = tested on: cells of adenocarcinoma of breast; experiment: IC50 on human breast cancer cells; type: cell-based
Solubility in water = type: physicochemical
Stability in water = type: physicochemical; details: after dissolved in water
[3] = Effectiveness on oral administration; type: in vivo
human hepatic cancer H22 = details: for response carcinostatic rate: intravenous, daily for seven days
Method: (§1) The mice were divided into three groups, which were given large dose (LD50×⅕), middle dose (LD50× 1/10) and small dose (LD50× 1/20) respectively. […] Beijing's institute for drug control carried out human hepatic cancer H22 nude mice inoculation carcinostatic rate experiments. […] Every group was given 0.2 ml every time per day for seven consecutive days. The mice were put to death thirty days after inoculation.

[4] = Antitumor effects (test not specified)
Kunming mice = experiment: Acute toxicity, IP once a day for ten days, LD50 by Bliss method; type: in vivo
Text: a). Divided 50 Kunming mice randomly into 5 groups, each having 10 mice, weighing from 18 g to 22 g and being half male and half female.

[5] = tested on: human breast cancer, lung cancer, hepatic cancer, colorectal cancer and ovary cancer; experiment: Nude mice inoculation carcinostatic rate experiments, human cancers; type: in vivo; details: for response carcinostatic rate: injected abdominally
Method: as §1

rats = experiment: Long-term toxicity experiments in rats
Text: Thus we can not only know the target organs of toxic reactions and the reversibility of the damages through observing the main body reactions and degrees of injuries after three months of administration, but also determine nontoxic dose to provide reference for therapeutic safe dose.
c). […] Weighed the rats once a week and adjusted doses according to weight changes. Stopped administration after 12 weeks and continued observing for 2 weeks.

[6] = tested on: human hepatic cancer BEL-7402 cells; experiment: Dynamic growth of BEL-7402 cells cultured in vitro; type: cell-based; details: 10 μg/ml and 20 μg/ml, observed for eight days
Method: 1. […] From the third day on, the survival cells in the treated group were less than that in the control group, in which the cells grew logarithmically while those in the treated group decreased gradually. The difference among the groups became wider as time went by; moreover, the survival cells of 20 μg/ml group were less than those of 10 μg/ml group.
c). […] Then observed the dynamic growth of the cells for eight days. […] From the third day on, the cells in the control group grew logarithmically while those in the treated group decreased gradually. The difference among the groups became wider as time went by.

lung cancer cells = experiment: Selective killing experiment, lung cancer cells; type: cell-based, human; details: within a certain range of doses
melanoma cells = experiment: Selective killing experiment, melanoma cells; type: cell-based, human; details: within a certain range of doses
[7] = tested on: human hepatic cancer BEL-7402 cells; experiment: Ultra-microstructure of BEL-7402 cells by transmission electronic microscope; type: cell-based; details: different doses
Text: 3. […] Then the changes of the ultra-microstructure were observed via transmission electronic microscope. […] The vacuoles and the lipid drop in the plasma increased drastically until necrotic changes, karyopyknosis, karyorrhexis, karyolysis and complete disintegration occurred (FIG. 6-FIG. 11).
e). […] The cells untreated appeared in the shape of irregular polygon, with abundant microvilli on the cell surface, plentiful organelles and different amount of glycogen granules in the plasma. […] The vacuoles and the lipid drop in the plasma increased drastically until necrotic changes, karyopyknosis, karyorrhexis, karyolysis and complete disintegration occurred.

[8] = tested on: gastric cancer BGC-823 cells; experiment: Determination of IC50, MTT, BGC-823 cells; type: cell-based
Method: a). Cultured gastric cancer BGC-823 cells in RPMJ-1640 nutritional fluid containing 15% fetal calf serum; then inoculated them onto 96-well culture plate, 1×10^4 cells per well; Put it in an incubator with temperature of 37° C. and 5% of CO2. […] After 72 hours of culture, added MTT fluid. An hour later, DMSO was added for coloration. OD value was assayed with enzyme labeling instrument. Finally, calculated the response rate of the drug in each concentration and determined IC50 based on the coordinate process.

[9] = tested on: human oral cancer KB cells; experiment: Determination of IC50, MTT, KB cells; type: cell-based; details: for Response rate: KB
hepatic cancer H22 cells = experiment: Carcinostatic rates on hepatic cancer H22 in Kunming mice; type: in vivo; details: for Tumor Weight: daily for seven days; for Mice After Injection: 10 mice before injection
Method: a). Divided 40 Kunming mice with weight ranging from 21 to 22 g, half male and half female randomly into 4 groups. Every group had 10 mice. Inoculated every mouse with 0.2 ml hepatic cancer H22 cells subcutaneously in right abdomen. […] The control group was given normal saline IP. The mice were put to death the day after withdrawal. Weighed the bodies and the tumor, calculated the carcinostatic rates.

carnuncle S180 = experiment: Carcinostatic rates against carnuncle S180 in mice; type: in vivo, Kunming mice; details: for Mice After Injection: 10 mice before injection
cancer = experiment: Typical cases treated by oral capsules and injections; type: in vivo, human
Text: 1. The oral capsules were composed of bicycloplatin and adjuvant.
2. […] A course of treatment took 6 times (12 ampoules). The second course of treatment began after an interval of two weeks. After three consecutive courses of treatment, general examination was taken.

[10] = Toxic reactions in clinical trial (five-degree classification by WHO); type: in vivo, human
[11] = after two times of administration of the smallest dose based on LD50
[12] = 12th week of administration and 2 weeks after withdrawal
[13] = rats, oral LD50/10 once a day for 90 days

Molecule: N.N.O=C([O-])C1(C(=O)[O-])CCC1.[Pt+2] [Carboplatin, carboplatin, reference compound]
- LD50 abdominal administration (nude mice; administered abdominally): 130 mg/kg
- IC50 [1]: 8.45 µg/mL
- IC50 [2]: 9.3 µg/mL
- Solubility in water (Solubility in water): 1.5 g/100 ml
- stability in water (Stability in water): lose effectiveness in one day
- effectiveness on oral administration [3]: ineffective

Molecule: N.N.[Cl][Pt][Cl] [Cisplatin, cis-dichlorodiaminoplatin]
- stability in water (Stability in water): lose effectiveness in one day
- effectiveness on oral administration [3]: ineffective

Molecule: O=P1(N(CCCl)CCCl)NCCCO1 (stereo not shown) [cyclophosphamide, reference compound]
- inhibition rate (human hepatic cancer H22; [11]): 73.15%
- state of the mice (human hepatic cancer H22; [11]): most of the mice were near death

Molecule: Double 1,1-Cyclopropane Dicarboxylic Acid Diaminoplatin Complex
- LD50 (nude mice; injected): 180 mg/kg
- solubility in water compared with bicycloplatin (Solubility in water): less soluble in water
- antitumor effects compared with bicycloplatin [4]: superior

Molecule: double 1,1-cyclobutane dicarboxylic acid diaminoplatin complex [bicycloplatin]
- abnormal manifestations (Kunming mice; IP 96-400 mg/kg): did not occur except local irritation of the high concentration
- time of death (Kunming mice; IP 96-400 mg/kg): on the 3rd to 7th day
- LD50±SE (Kunming mice; Kunming mice, IP once a day for ten consecutive days, Bliss method): 210.5 ± 1.14 mg/kg
- LD50 compared with cisplatin and carboplatin (Kunming mice; determined under the same condition): significantly higher than the LD50 of cisplatin and carboplatin
- IC50 [1]: 1.3 µg/mL
- IC50 [2]: 2.8 µg/mL
- response carcinostatic rate ([5]; large dose (LD50×⅕)): 90%
- response carcinostatic rate ([5]; middle dose (LD50×1/10)): 95%
- response carcinostatic rate ([5]; small dose (LD50×1/20)): 70%
- carcinostatic rates ([5]; same doses given by stomach lavage, compared with abdominal injection): a little lower carcinostatic rates
- death of nude mice (human hepatic cancer H22; every group containing ten mice): No death of nude mice was observed
- response carcinostatic rate (human hepatic cancer H22; large dose (LD50×⅕)): 50.85%
- response carcinostatic rate (human hepatic cancer H22; middle dose (LD50×1/10)): 57.40%
- response carcinostatic rate (human hepatic cancer H22; small dose (LD50×1/20)): 35.20%
- BUN, GPT, GOT versus control group (rats; [12]): no significant difference
- WBC, RBC, hemoglobin, platelet (rats; [12]): all within normal ranges
- histological examination, livers and spleens (rats; after observation): different degrees of hyperemia and edema
- histological examination, other visceras (rats; after observation): No organic changes caused by the drug are found
- other visceral coefficients (rats; after observation): all normal
- weights of the livers (rats; after observation, versus control group): slightly heavier than that of the control group
- diet, activity and state of the rats (rats; [13]): no obvious abnormality
- mortality (rats; [13]): No mortally occurred
- injuries of the drug to viscera (rats; rats, three months of administration): dose-dependent
- damage and recovery (rats; small dose): does a little damage to the group and the group can recover fully
- reversibility of injuries (rats; therapeutic dose): alleviated after one month of withdrawal
- inhibition of growth of BEL-7402 cells [6]: could inhibit the growth of human hepatic cancer BEL-7402 cells cultured in vitro dependent on time and dose; also recorded: potent antitumor effects on human hepatic cancer BEL-7402 cells dependent on doses
- lung cancer cells killed (lung cancer cells): 50%
- melanoma cells (melanophore) killed (melanoma cells): 80%
- cell death [7]: Five days later cell death occurred
- changes of the ultra-microstructure [7]: degenerative changes of different degrees with the increase of the concentration of drug; also recorded: degenerative changes of different degrees with the increase of the concentration of bicycloplatin
- Response rate ([8]; BGC-823, 0.78 μg/ml): 6.0%
- Response rate ([8]; BGC-823, 1.56 μg/ml): 19.0%
- Response rate ([8]; BGC-823, 3.13 μg/ml): 21.0%
- Response rate ([8]; BGC-823, 6.25 μg/ml): 33.0%
- Response rate ([8]; BGC-823, 12.5 μg/ml): 51.0%
- Response rate ([8]; BGC-823, 25 μg/ml): 60.0%
- Response rate ([8]; BGC-823, 50 μg/ml): 74.6%
- Response rate ([8]; BGC-823, 100 μg/ml): 80.3%
- Response rate ([8]; BGC-823, 200 μg/ml): 83.3%
- IC50 ([8]; BGC-823, 72 hours): IC50 = 14.80 ± 1.34 μg/ml
- IC50 ([9]; KB cells, 72 hours): IC50 = 13.24 ± 1.33 μg/ml
- Response rate ([9]; 0.78 μg/ml): 5.9%
- Response rate ([9]; 1.56 μg/ml): 14.8%
- Response rate ([9]; 3.13 μg/ml): 28.2%
- Response rate ([9]; 6.25 μg/ml): 26.2%
- Response rate ([9]; 12.5 μg/ml): 36.7%
- Response rate ([9]; 25 μg/ml): 66.6%
- Response rate ([9]; 50 μg/ml): 77.1%
- Response rate ([9]; 100 μg/ml): 93.0%
- Response rate ([9]; 200 μg/ml): 93.3%
- Body Weight After Injection (hepatic cancer H22 cells; H22, 10 mg/kg): 27.9 g
- Response rate (hepatic cancer H22 cells; H22, 10 mg/kg): 40.4%
- Tumor Weight (hepatic cancer H22 cells; H22, 10 mg/kg abdominally): 0.95 ± 0.29 g
- Mice After Injection (hepatic cancer H22 cells; H22, 10 mg/kg): 10
- Body Weight After Injection (hepatic cancer H22 cells; H22, 20 mg/kg): 24.4 g
- Response rate (hepatic cancer H22 cells; H22, 20 mg/kg): 67.0%
- Tumor Weight (hepatic cancer H22 cells; H22, 20 mg/kg abdominally): 0.53 ± 0.26 g
- Mice After Injection (hepatic cancer H22 cells; H22, 20 mg/kg): 10
- Body Weight After Injection (hepatic cancer H22 cells; H22, 30 mg/kg): 22.4 g
- Response rate (hepatic cancer H22 cells; H22, 30 mg/kg): 78.6%
- Tumor Weight (hepatic cancer H22 cells; H22, 30 mg/kg abdominally): 0.34 ± 0.09 g
- Mice After Injection (hepatic cancer H22 cells; H22, 30 mg/kg): 10
- mortality (hepatic cancer H22 cells; H22, 10-30 mg/kg): no mortality occurs
- weight gain of the treated groups (hepatic cancer H22 cells; H22, 10-30 mg/kg, versus control group): less than that of the control group
- antitumor effects on S180 (carnuncle S180; 10-30 mg/kg): potent antitumor effects on S180 dependent on doses
- Body Weight After Injection (carnuncle S180; S180, 10 mg/kg): 25.8 g
- Response rate (carnuncle S180; S180, 10 mg/kg): 39.7%
- Tumor Weight (carnuncle S180; S180, 10 mg/kg): 1.03 ± 0.30 g
- Mice After Injection (carnuncle S180; S180, 10 mg/kg): 10
- Body Weight After Injection (carnuncle S180; S180, 20 mg/kg): 18.1 g
- Response rate (carnuncle S180; S180, 20 mg/kg): 68.0%
- Tumor Weight (carnuncle S180; S180, 20 mg/kg): 0.54 ± 0.16 g
- Mice After Injection (carnuncle S180; S180, 20 mg/kg): 10
- Body Weight After Injection (carnuncle S180; S180, 30 mg/kg): 21.5 g
- Response rate (carnuncle S180; S180, 30 mg/kg): 71.0%
- Tumor Weight (carnuncle S180; S180, 30 mg/kg): 0.49 ± 0.16 g
- Mice After Injection (carnuncle S180; S180, 30 mg/kg): 10
- tumor (cancer; Patient Li, end of the 2nd course of treatment): basically disappeared
- lung metastatic carcinoma (cancer; Patient Ma, hepatic cancer, capsules and injections, after two months): disappeared
- outcome (cancer; Patient Meng, adenocarcinoma of lung at late stage, injections and oral capsules): cured in general
- final outcome (cancer; Patient Wang, late hepatic cancer): the tumor disappeared
- outcome (cancer; Patient Yang, melanoma, metastasis to liver and lung, 36 ampoules): The metastatic tumors had been cured and the melanoma had necrosed
- three masses with size of 2×2 cm^2 (cancer; Patient Zhu, cystic cancer, oral capsules): disappeared completely
- metastasis to liver (cancer; foreign patient, intestinal cancer, 36 ampoules and 36 oral capsules): disappeared
- adverse reactions [10]: no adverse reactions occur
- antitumor spectrum [4]: Broad Antitumor Spectrum
- effectiveness on oral administration [3]: significant therapeutic effects
